PubChem BioAssay (NCI)
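Method: 48-hour compound exposure of cells in 96-well plates, five concentrations, linear interpolation of endpoints. GI50: concentration for 50% inhibition of growth. TGI marks complete inhibition of growth.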

How the values were obtained:
Test in all cases: DTP human tumour cell line panel, 48 h
HOP-62 NSCLC = tested on: HOP-62 NSCLC
HS 578T breast = tested on: HS 578T breast
IGROV1 ovarian = tested on: IGROV1 ovarian
MALME-3M melanoma = tested on: MALME-3M melanoma
MOLT-4 leukemia = tested on: MOLT-4 leukemia
OVCAR-3 ovarian = tested on: OVCAR-3 ovarian
OVCAR-8 ovarian = tested on: OVCAR-8 ovarian
RPMI-8226 leukemia = tested on: RPMI-8226 leukemia
SK-MEL-5 melanoma = tested on: SK-MEL-5 melanoma
SR leukemia = tested on: SR leukemia

Compound | GI50 (HOP-62 NSCLC) | TGI (HOP-62 NSCLC) | GI50 (HS 578T breast) | TGI (HS 578T breast) | GI50 (IGROV1 ovarian) | TGI (IGROV1 ovarian) | GI50 (MALME-3M melanoma) | TGI (MALME-3M melanoma) | GI50 (MOLT-4 leukemia) | TGI (MOLT-4 leukemia) | GI50 (OVCAR-3 ovarian) | TGI (OVCAR-3 ovarian) | GI50 (OVCAR-8 ovarian) | TGI (OVCAR-8 ovarian) | GI50 (RPMI-8226 leukemia) | GI50 (SK-MEL-5 melanoma) | TGI (SK-MEL-5 melanoma) | GI50 (SR leukemia) | TGI (SR leukemia) | TGI (RPMI-8226 leukemia)
O=C1NC(=O)/C(=C\c2ccccc2)C2=C1CCCC2 | 7.31 µM | 25.8 µM | 3.46 µM | 22.8 µM | 13 µM | 32.4 µM | 2.53 µM | 9.11 µM | 2.77 µM | 7.73 µM | 2.71 µM | 8.17 µM | 9.92 µM | 41.1 µM | 1.91 µM | 1.81 µM | 3.52 µM | 2.35 µM | 5.77 µM | 
COCC1(CO)C(=O)C2CCN1CC2 (stereo not drawn) | > 100 µM | > 100 µM | > 67.5 µM | > 100 µM | 18.4 µM | 40.6 µM | 12.6 µM | 28.3 µM | 19.4 µM | 51.4 µM | 14.2 µM | 29.4 µM | 34.6 µM | > 80.3 µM | 23.8 µM | 43.7 µM | > 77.7 µM | 18.4 µM | 58.4 µM | 64.3 µM
O=C(CSC1CCc2ccccc21)N/N=C/c1ccccc1O (stereo not drawn) | 10.8 µM | > 100 µM | 11.7 µM | 67.2 µM | 2.24 µM | 37.4 µM | 6.4 µM | 42.3 µM | 3.79 µM | 56.7 µM | 4.67 µM | 48.9 µM | 3.66 µM | > 100 µM | 7.47 µM | 1.85 µM | 5.17 µM | 4.03 µM | 34.4 µM | 38.4 µM
COc1ccc(O)c(C(=O)c2ccc(C(=O)N[C@H]3CCCNC[C@@H]3NC(=O)c3ccncc3)cc2)c1F | 4.39 µM | > 21.1 µM | 0.0882 µM | 12.5 µM | 3.74 µM | > 25 µM | 1.47 µM | > 25 µM | 1.38 µM | 11.6 µM | 4.3 µM | > 23 µM | 5.5 µM | > 21.3 µM | 10.3 µM | 5.5 µM | > 17.8 µM | 0.63 µM | 12.7 µM | > 25 µM
NC(=O)c1cc(S(=O)(=O)Nc2nnc(-c3ccccc3)c(-c3ccccc3)n2)c(SCc2ccccc2)cc1Cl | > 100 µM | > 100 µM | > 44.4 µM | > 75.5 µM | > 54.7 µM | > 94.3 µM | > 100 µM | > 100 µM | 38.2 µM | > 70.1 µM | > 100 µM | > 100 µM | > 50.3 µM | > 77.5 µM | > 44.1 µM | > 79.6 µM | > 100 µM | 42.2 µM | > 70.9 µM | > 65.1 µM
C=C1C(=O)OC2CC(C)C3(O)CCC(=O)C3(C)CC12 (stereo not drawn) |  | > 100 µM |  | 61.4 µM |  | 82.6 µM |  | 69.5 µM |  | 58 µM |  | 46.5 µM |  | 70.3 µM |  |  | > 100 µM |  | 57 µM | 43.1 µM
COc1ccc(-c2ccc(-c3ccc(C(=N)N)s3)s2)cc1 | 0.214 µM | 0.446 µM | 0.295 µM | 1.41 µM | 0.244 µM | 0.509 µM | 0.564 µM | 1.39 µM | 0.315 µM | 0.849 µM | 0.194 µM | 0.352 µM | 0.219 µM | 0.5 µM | 0.221 µM | 1.21 µM | 2.87 µM | 0.208 µM | 0.566 µM | 0.469 µM
O=CN1CCN(CC(O)CN2CCCCC2)CC1 (stereo not drawn) |  | > 100 µM |  | > 100 µM |  | > 100 µM |  | > 100 µM |  | > 100 µM |  | > 100 µM |  | > 100 µM |  |  | > 100 µM |  | > 100 µM | > 100 µM
CCN(Cc1ccccc1C)c1ccc(CO)c(Cl)c1 | 6.39 µM | 23.7 µM | 16 µM | 42.3 µM |  | 0.747 µM | 15.6 µM | 32 µM | 15.8 µM | 39.2 µM | 2.13 µM | 9.79 µM | 15.8 µM | 48.9 µM | 4.04 µM | 4.77 µM | 11.9 µM | 9.29 µM | 32.6 µM | 23.5 µM
